Assay results published in US7491505B2, “Method for analyzing tumor aggressivity comprising measurement of polymerized actin” (Bioalliance Pharma, priority 2002, dated 2009).

System: polymerized actin in lysate of NIH 3T3 EF cells
Test: Measurement of polymerized actin in the steady state (STAFI) and Kobs in cellular lysate by static fluorescence polarization
Assay type: biochemical, murine
Settings: NIH 3T3 EF lysate
Text: The result of the test is a plateau fluorescence anisotropy value (<<STAFI>>) corresponding to the quantity of polymerized actin in the steady state and an apparent constant (Kobs) for actin polymerization resulting from the progressive incorporation of marked actin monomers over time until attainment of the steady state, that is the plateau of the curve.
By use of the GraphPad Prism® version 3 Software (GraphPad Software, Inc., San Diego, Calif.), for biostatistics, curve fitting, and scientific graphing, the experimental data are used to generate a curve adjusted to a 1st order equation such that: Y=ΔmA max(1−e^−k·t) where
The technique of fluorescence polarization, also called static fluorescence anisotropy enables the obtaining of a value dependent on the size of the fluorescent molecule and the number of fluorescent molecular complexes. […] The level of this plateau, called <<STAFI>> reflects the quantity of F at the steady state, that is, the […], and the speed of reaching the plateau depends on the rapidity with which these filaments are formed. […]
At the time of the test, the solution of marked actin monomers is diluted to 1/3 in G solution. The apparatus used is a Beacon® 2000 Fluorescence Polarization System (Invitrogen Corporation, Carlsbad, Calif.) fluorescence polarization spectrometer. […]

For `C/C1=C\[C@H](C)C[C@H](C)OC(=O)C[C@H](c2ccc(O)cc2)NC(=O)[C@@H](Cc2c(Br)[nH]c3ccccc23)N(C)C(=O)[C@H](C)NC(=O)[C@@H](C)C1` [Jasplakinolide], the “delta mA max (STAFI, fluorescence anisotropy value at the plateau)” value (10 μM jasplakinolide added to polymerization medium, initial value 35 mA, NIH 3T3 65 mA) was 66 mA and the “Kobs (apparent constant of actin polymerization)” value (jasplakinolide added, NIH 3T3 EF alone 0.04, NIH 3T3 0.086) was 0.15.
